Assay: Solubility of fullerene compounds in toluene
Format: physicochemical
Settings: mixed at 40° C., returned to 25° C.
Procedure: With regard to the solubility of various fullerene compounds, a powder of a fullerene derivative and toluene were mixed at 40° C. The amount of toluene used at this time was a minimum amount at which dissolution was confirmed at 40° C. Thereafter, temperature was returned to 25° C. and no precipitation was confirmed. The concentration of the toluene on this occasion was regarded as the solubility. In the case where precipitation was observed, toluene was further added until dissolution, and the concentration of the toluene at the time when dissolution was finally confirmed was regarded as the solubility.

Compound	Solubility (% by weight)
c12c3c4c5c1c1c6c7c2c2c8c3c3c9c4c4c%10c5c5c1c1c6c6c%11c7c2c2c7c8c3c3c8c9c4c4c9c%10c5c5c1c1c6c6c%11c2c2c7c3c3c8c4c4c9c5c1c1c6c2c3c41 [C60, fullerene]	0.3
1-(3-methoxycarbonyl)propyl-1-phenyl(6,6)-C60 [PCBM]	1.5

Assay: Solubility of buffer material in methanol at room temperature
Format: physicochemical
Settings: not given

Compound	Solubility (MeOH, room temperature)/% by weight [% by weight]
O=P(c1ccccc1)(c1ccccc1)c1ccc2ccccc2c1-c1c(P(=O)(c2ccccc2)c2ccccc2)ccc2ccccc12 [BINAPO]	4
O=P(c1ccccc1)(c1ccccc1)c1c(F)c(F)c(-c2c(F)c(F)c(P(=O)(c3ccccc3)c3ccccc3)c(F)c2F)c(F)c1F [POFBPO]	1
O=P(c1ccccc1)(c1ccccc1)c1ccc2c(c1)C1(c3ccccc3-c3ccccc31)c1cc(P(=O)(c3ccccc3)c3ccccc3)ccc1-2 [POSFPO]	0.5
O=P(c1ccccc1)(c1ccccc1)c1cccc(-c2cc(-c3ccccc3)cc(-c3cccc(P(=O)(c4ccccc4)c4ccccc4)c3)n2)c1 [PO(TPP)PO]	>8
O=P(c1ccccc1)(c1ccccc1)c1ccccc1 [POPh3]	>5.0
c1ccc(-c2cc(-c3ccc4ccccc4c3)nc3c2ccc2c(-c4ccccc4)cc(-c4ccc5ccccc5c4)nc23)cc1 [NBPhen]	<0.01
c1ccc(-n2c(-c3cc(-c4nc5ccccc5n4-c4ccccc4)cc(-c4nc5ccccc5n4-c4ccccc4)c3)nc3ccccc32)cc1 [TPBi]	<0.01
O=P(c1ccccc1)(c1ccc2ccc3cccc4ccc1c2c34)c1ccc2ccc3cccc4ccc1c2c34 [POPy2]	<0.01
Cc1cc(-c2ccccc2)c2ccc3c(-c4ccccc4)cc(C)nc3c2n1 [BCP, 2,9-dimethyl-4,7-diphenyl-1,10-phenanthroline]	0.1
O=P(c1ccccc1)(c1ccccc1)c1ccc2c(c1)c1cc(P(=O)(c3ccccc3)c3ccccc3)ccc1n2-c1ccccc1 [POCzPO]	>8

Assay: Solubility in THF noted during cyclic voltammetry
Format: physicochemical
Settings: cyclic voltammetry conditions
Procedure: Thus, using a mixed solvent of o-dichlorobenzene and acetonitrile (4:1, volume ratio) instead of THF, the cyclic voltammetry was performed.

Compound	Solubility in THF
c12c3c4c5c1c1c6c7c2c2c8c3c3c9c4c4c%10c5c5c1c1c6c6c%11c7c2c2c7c8c3c3c8c9c4c4c9c%10c5c5c1c1c6c6c%11c2c2c7c3c3c8c4c4c9c5c1c1c6c2c3c41 [C60, fullerene]	sparingly soluble

Source: patent US20120211082A1, “PHOTOELECTRIC CONVERSION DEVICE AND SOLAR CELL USING THE SAME” (MITSUBISHI CHEMICAL CORPORATION, priority 2009, published 2012)
